{"source": "patent US20230143612A1", "about": "(Arbutus Biopharma Corporation, priority 2020, published 2023)"}
{"molecular_target": "PD-L1 His protein / PD-1 Fc protein (Homo sapiens, UniProt Q9NZQ7)", "sequence (Q9NZQ7 19-238 limits assumed)": "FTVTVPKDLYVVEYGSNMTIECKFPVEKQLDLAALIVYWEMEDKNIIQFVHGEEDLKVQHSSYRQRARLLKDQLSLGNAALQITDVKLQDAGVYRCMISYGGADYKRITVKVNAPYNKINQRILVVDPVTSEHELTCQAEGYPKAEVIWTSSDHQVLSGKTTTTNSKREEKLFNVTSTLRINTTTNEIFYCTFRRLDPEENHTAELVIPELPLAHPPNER", "assay": "HTRF Assay (PD-1/PD-L1 interaction)", "format": "binding", "conditions": "PD-L1 His 6 nM, PD-1 Fc 6 nM", "summary_of_the_method": "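Compounds tested from 20 μM down to 0.001 μM (3-fold) against 6 nM PD-L1 His and 6 nM PD-1 Fc, 15 min room temperature incubation. Detection after 1 h at room temperature with Tb cryptate anti-6HIS and XL665 anti-human IgG reagents (mixture at 0.35 nM and 6.7 nM), HTRF signal.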", "units": {"IC50": "nM"}}
{"compound": "COc1nc(-c2cccc(-c3cccc(-c4ccn5c(=O)c(CNC[C@@H](O)CC(=O)O)cnc5c4)c3Cl)c2Cl)ccc1CNC[C@@H]1CCC(=O)N1", "note": "[Example 126, (S)-4-(((8-(2,2′-Dichloro-3′-(6-methoxy-5-(((((S)-5-oxopyrrolidin-2-yl)methyl)amino)methyl)pyridin-2-yl)-[1,1′-biphenyl]-3-yl)-4-oxo-4H-pyrido[1,2-a]pyrimidin-3-yl)methyl)amino)-3-hydroxybutanoic acid]", "IC50": 0.4}
{"compound": "COc1nc(-c2cccc(-c3cccc(-c4ccn5c(=O)c(CN6CC7(C(=O)O)CCC6CC7)cnc5c4)c3Cl)c2Cl)ccc1CNC[C@@H]1CCC(=O)N1", "note": "[Example 127, (S)-2-((8-(2,2′-Dichloro-3′-(6-methoxy-5-((((5-oxopyrrolidin-2-yl)methyl)amino)methyl)pyridin-2-yl)-[1,1′-biphenyl]-3-yl)-4-oxo-4H-pyrido[1,2-a]pyrimidin-3-yl)methyl)-2-azabicyclo[2.2.2]octane-4-carboxylic acid]", "IC50": 0.3}
{"compound": "COc1nc(-c2cccc(-c3cccc(-c4ccn5c(=O)c(CN6CCC[C@H]6C(=O)O)cnc5c4)c3Cl)c2Cl)ccc1CNC[C@@H]1CCC(=O)N1", "note": "[Example 128, ((8-(2,2′-Dichloro-3′-(6-methoxy-5-(((((S)-5-oxopyrrolidin-2-yl)methyl)amino)methyl)pyridin-2-yl)-[1,1′-biphenyl]-3-yl)-4-oxo-4H-pyrido[1,2-a]pyrimidin-3-yl)methyl)-L-proline]", "IC50": 0.2}
{"compound": "COc1nc(-c2cccc(-c3cccc(-c4ccn5c(=O)c(CN6CCCC[C@H]6C(=O)O)cnc5c4)c3Cl)c2Cl)ccc1CNC[C@@H]1CCC(=O)N1", "note": "[Example 129, (S)-1-((8-(2,2′-Dichloro-3′-(6-methoxy-5-(((((S)-5-oxopyrrolidin-2-yl)methyl)amino)methyl)pyridin-2-yl)-[1,1′-biphenyl]-3-yl)-4-oxo-4H-pyrido[1,2-a]pyrimidin-3-yl)methyl)piperidine-2-carboxylic acid]", "IC50": 0.3}
{"compound": "COc1nc(-c2cccc(-c3cccc(-c4ccn5c(=O)c(CN6CCC[C@H](C(=O)O)C6)cnc5c4)c3Cl)c2Cl)ccc1CNC[C@@H]1CCC(=O)N1", "note": "[Example 130, (S)-1-((8-(2,2′-Dichloro-3′-(6-methoxy-5-(((((S)-5-oxopyrrolidin-2-yl)methyl)amino)methyl)pyridin-2-yl)-[1,1′-biphenyl]-3-yl)-4-oxo-4H-pyrido[1,2-a]pyrimidin-3-yl)methyl)piperidine-3-carboxylic acid]", "IC50": 0.3}
{"compound": "COc1nc(-c2cccc(-c3cccc(-c4ccn5c(=O)c(CNC[C@H](C)O)cnc5c4)c3Cl)c2Cl)ccc1CNC[C@@H]1CCC(=O)N1", "note": "[Example 131, 8-(2,2′-dichloro-3′-(6-methoxy-5-(((((S)-5-oxopyrrolidin-2-yl)methyl)amino)methyl)pyridin-2-yl)-[1,1′-biphenyl]-3-yl)-3-((((S)-2-hydroxypropyl)amino)methyl)-4H-pyrido[1,2-a]pyrimidin-4-one]", "IC50": 1.7}
{"compound": "COc1nc(-c2cccc(-c3cccc(-c4ccn5c(=O)c(CNC[C@@H](C)O)cnc5c4)c3Cl)c2Cl)ccc1CNC[C@@H]1CCC(=O)N1", "note": "[Example 132, 8-(2,2′-Dichloro-3′-(6-methoxy-5-(((((S)-5-oxopyrrolidin-2-yl)methyl)amino)methyl)pyridin-2-yl)-[1,1′-biphenyl]-3-yl)-3-((((R)-2-hydroxypropyl)amino)methyl)-4H-pyrido[1,2-a]pyrimidin-4-one]", "IC50": 1.7}
{"compound": "COc1nc(-c2cccc(-c3cccc(-c4ccn5c(=O)c(CNCC(C)(C)O)cnc5c4)c3Cl)c2Cl)ccc1CNC[C@@H]1CCC(=O)N1", "note": "[Example 133, (S)-8-(2,2′-Dichloro-3′-(6-methoxy-5-((((5-oxopyrrolidin-2-yl)methyl)amino)methyl)pyridin-2-yl)-[1,1′-biphenyl]-3-yl)-3-(((2-hydroxy-2-methylpropyl)amino)methyl)-4H-pyrido[1,2-a]pyrimidin-4-one]", "IC50": 1.5}
{"compound": "COc1nc(-c2cccc(-c3cccc(-c4ccn5c(=O)c(CN6C[C@H](O)C[C@@H]6C(=O)O)cnc5c4)c3Cl)c2Cl)ccc1CNC[C@@H]1CCC(=O)N1", "note": "[Example 134, (2R,4R)-1-((8-(2,2′-Dichloro-3′-(6-methoxy-5-(((((S)-5-oxopyrrolidin-2-yl)methyl)amino)methyl)pyridin-2-yl)-[1,1′-biphenyl]-3-yl)-4-oxo-4H-pyrido[1,2-a]pyrimidin-3-yl)methyl)-4-hydroxypyrrolidine-2-carboxylic acid]", "IC50": 1.1}
{"compound": "COc1nc(-c2cccc(-c3cccc(-c4ccn5c(=O)c(CN6CC(CO)C6)cnc5c4)c3Cl)c2Cl)ccc1CN1CC[C@H](C(=O)O)C1", "note": "[Example 135, (S)-1-((6-(2,2′-Dichloro-3′-(3-((3-(hydroxymethyl)azetidin-1-yl)methyl)-4-oxo-4H-pyrido[1,2-a]pyrimidin-8-yl)-[1,1′-biphenyl]-3-yl)-2-methoxypyridin-3-yl)methyl)pyrrolidine-3-carboxylic acid]", "IC50": 0.2}
{"compound": "COc1nc(-c2cccc(-c3cccc(-c4ccn5c(=O)c(CN6CC(CO)C6)cnc5c4)c3Cl)c2Cl)ccc1CN1CC(C(=O)O)C1", "note": "[Example 136, 1-((6-(2,2′-Dichloro-3′-(3-((3-(hydroxymethyl)azetidin-1-yl)methyl)-4-oxo-4H-pyrido[1,2-a]pyrimidin-8-yl)-[1,1′-biphenyl]-3-yl)-2-methoxypyridin-3-yl)methyl)azetidine-3-carboxylic acid]", "IC50": 0.2}
{"compound": "COC(=O)CCCNCc1cnc2cc(-c3cccc(-c4cccc(-c5ccc(CNC[C@@H]6CCC(=O)N6)c(OC)n5)c4Cl)c3Cl)ccn2c1=O", "note": "[Example 137, Methyl (S)-4-(((8-(2,2′-dichloro-3′-(6-methoxy-5-((((5-oxopyrrolidin-2-yl)methyl)amino)methyl)pyridin-2-yl)-[1,1′-biphenyl]-3-yl)-4-oxo-4H-pyrido[1,2-a]pyrimidin-3-yl)methyl)amino)butanoate]", "IC50": 1.7}
{"compound": "COc1ccc(CNCc2cnc3cc(-c4cccc(-c5cccc(-c6ccc(CNC[C@@H]7CCC(=O)N7)c(OC)n6)c5Cl)c4Cl)ccn3c2=O)c(OC)c1", "note": "[Example 138, (S)-8-(2,2′-Dichloro-3′-(6-methoxy-5-((((5-oxopyrrolidin-2-yl)methyl)amino)methyl)pyridin-2-yl)-[1,1′-biphenyl]-3-yl)-3-(((2,4-dimethoxybenzyl)amino)methyl)-4H-pyrido[1,2-a]pyrimidin-4-one]", "IC50": 1.4}
{"compound": "COc1nc(-c2cccc(-c3cccc(-c4ccn5c(=O)c(CNC6(CC(=O)O)CC6)cnc5c4)c3Cl)c2Cl)ccc1CNC[C@@H]1CCC(=O)N1", "note": "[Example 139, (S)-2-(1-(((8-(2,2′-Dichloro-3′-(6-methoxy-5-((((5-oxopyrrolidin-2-yl)methyl)amino)methyl)-pyridin-2-yl)-[1,1′-biphenyl]-3-yl)-4-oxo-4H-pyrido[1,2-a]pyrimidin-3-yl)methyl)amino)-cyclopropyl)acetic acid]", "IC50": 0.4}
{"compound": "COc1nc(-c2cccc(-c3cc(F)cc(-c4ccn5c(=O)c(CNC[C@@H]6CCC(=O)N6)cnc5c4)c3Cl)c2Cl)ccc1CNC[C@@H]1CCC(=O)N1", "note": "[Example 140, 8-(2,2′-Dichloro-5-fluoro-3′-(6-methoxy-5-(((((S)-5-oxopyrrolidin-2-yl)methyl)amino)methyl)pyridin-2-yl)-[1,1′-biphenyl]-3-yl)-3-(((((S)-5-oxopyrrolidin-2-yl)methyl)amino)methyl)-4H-pyrido[1,2-a]pyrimidin-4-one]", "IC50": 2}
{"compound": "COc1nc(-c2cccc(-c3cc(Cl)cc(-c4ccn5c(=O)c(CNC[C@@H]6CCC(=O)N6)cnc5c4)c3Cl)c2Cl)ccc1CNC[C@@H]1CCC(=O)N1", "note": "[Example 141, 3-(((((S)-5-Oxopyrrolidin-2-yl)methyl)amino)methyl)-8-(2,2′,5-trichloro-3′-(6-methoxy-5-(((((S)-5-oxopyrrolidin-2-yl)methyl)amino)methyl)pyridin-2-yl)-[1,1′-biphenyl]-3-yl)-4H-pyrido[1,2-a]pyrimidin-4-one]", "IC50": 5.8}
{"compound": "COc1nc(-c2cccc(-c3cccc(-c4ccn5c(=O)c(CNC[C@@H]6CCC(=O)N6)cnc5c4)c3Cl)c2Cl)ccc1CN[C@H]1C[C@](C)(O)C1", "note": "[Example 142, 8-(2,2′-Dichloro-3′-(5-((((1r,3r)-3-hydroxy-3-methylcyclobutyl)amino)methyl)-6-methoxypyridin-2-yl)-[1,1′-biphenyl]-3-yl)-3-(((((S)-5-oxopyrrolidin-2-yl)methyl)amino)methyl)-4H-pyrido[1,2-a]pyrimidin-4-one]", "IC50": 1.7}
{"compound": "COc1nc(-c2cccc(-c3cccc(-c4ccn5c(=O)c(CN[C@H]6C[C@](C)(O)C6)cnc5c4)c3Cl)c2Cl)ccc1CNC[C@@H]1CCC(=O)N1", "note": "[Example 143, 8-(2,2′-Dichloro-3′-(6-methoxy-5-(((((S)-5-oxopyrrolidin-2-yl)methyl)amino)methyl)pyridin-2-yl)-[1,1′-biphenyl]-3-yl)-3-((((1r,3r)-3-hydroxy-3-methylcyclobutyl)amino)methyl)-4H-pyrido[1,2-a]pyrimidin-4-one]", "IC50": 1.8}
{"compound": "COc1nc(-c2cccc(-c3cccc(-c4ccn5c(=O)c(CN6CC[C@H](O)C6)cnc5c4)c3Cl)c2Cl)ccc1CNC[C@@H]1CCC(=O)N1", "note": "[Example 144, 8-(2,2′-Dichloro-3′-(6-methoxy-5-(((((S)-5-oxopyrrolidin-2-yl)methyl)amino)methyl)pyridin-2-yl)-[1,1′-biphenyl]-3-yl)-3-(((S)-3-hydroxypyrrolidin-1-yl)methyl)-4H-pyrido[1,2-a]pyrimidin-4-one]", "IC50": 3.1}
{"compound": "COc1nc(-c2cccc(-c3cccc(-c4ccn5c(=O)c(CNC[C@@H]6CCC(=O)N6)cnc5c4)c3Cl)c2C#N)ccc1CNC[C@@H]1CCC(=O)N1", "note": "[Example 145, 2′-Chloro-3-(6-methoxy-5-(((((S)-5-oxopyrrolidin-2-yl)methyl)amino)methyl)pyridin-2-yl)-3′-(4-oxo-3-(((((S)-5-oxopyrrolidin-2-yl)methyl)amino)methyl)-4H-pyrido[1,2-a]pyrimidin-8-yl)-[1,1′-biphenyl]-2-carbonitrile]", "IC50": 2.2}
